Reference: patent US7531573B2 (priority 1994, dated 2009)
Like-named read-outs stand apart in the source and are kept apart here.

What was measured:
[1] = tested on: NIH 3T3 mouse fibroblast cells; assay: Mitogen-induced cell proliferation; format: cell-based; conditions: for inhibition at 10 µM: NIH3T3, read-out: Mitogen-induced cell proliferation % Inhibition; for IC50: NIH3T3, read-out: Mitogen-induced cell proliferation IC50
Source text: Other cell lines, e.g., cancer cells, endothelial cells and fibroblasts, as well as many others, may be used in the cell proliferation assay. Selection of a particular cell line will depend in part on the desired application, and is well within the capabilities of an ordinarily skilled artisan.

[2] = molecular target: Gardos channel of erythrocytes (Homo sapiens, UniProt O15554); assay: cell-based; conditions: for inhibition at 10 µM: read-out: Gardos Channel % Inhibition
clinical = format: in vivo; conditions: human, in vivo, read-out: Levels Plasma; for concentration at 6 day of CLT dosing: CLT day 6; for concentration at 10 day (wash-out): Wash-out day 10; for concentration at 13 day (wash-out): Wash-out day 13; for concentration at 20 day (wash-out): Wash-out day 20
[3] = erythrocytes, read-out: Gardos Channel IC50
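Throughout, for Levels Plasma: oral tablet given every 12 h for six days, about 14 mg/kg per day for this subject, with levels then followed in plasma.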

Gardos channel of erythrocytes, sequence (O15554 whole entry): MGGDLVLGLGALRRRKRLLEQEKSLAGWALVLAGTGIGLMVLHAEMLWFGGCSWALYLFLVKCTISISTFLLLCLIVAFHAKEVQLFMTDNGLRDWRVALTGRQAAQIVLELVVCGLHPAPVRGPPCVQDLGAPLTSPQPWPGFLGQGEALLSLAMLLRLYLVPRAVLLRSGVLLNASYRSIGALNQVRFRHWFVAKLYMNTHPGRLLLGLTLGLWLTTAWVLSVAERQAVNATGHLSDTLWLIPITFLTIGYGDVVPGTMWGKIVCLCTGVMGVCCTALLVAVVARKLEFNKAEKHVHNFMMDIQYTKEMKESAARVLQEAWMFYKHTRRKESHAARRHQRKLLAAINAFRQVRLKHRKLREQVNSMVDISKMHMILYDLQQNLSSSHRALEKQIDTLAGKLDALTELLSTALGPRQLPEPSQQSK

In the case of O=CC(c1ccccc1)(c1ccccc1)c1ccccc1Cl [Compound 15, 2-chlorophenyl-diphenylacetaldehyde], the inhibition at 10 µM [1] is reported as 88.6%, the IC50 [1] is reported as 2600 nM and the IC50 [2, 3] is reported as 96.8 nM. It also gave an inhibition at 10 µM [2] of 100% and a melting point of 126 to 129 °C.

For O=CC(c1ccccc1)(c1ccccc1)c1ccccc1 [Compound 16, triphenylacetaldehyde], the inhibition at 10 µM [1] was 99.4%, the IC50 [1] was 400 to 2000 nM and the IC50 [2, 3] was 87 nM. It also gave an inhibition at 10 µM [2] of 98% and a melting point of 91 to 96 °C.

For Clc1ccccc1C(c1ccccc1)c1ccccc1 [Compound 17, 2-chlorophenyl-diphenylmethane], the inhibition at 10 µM [1] was 91.8%, the IC50 [1] was 3900 nM and the IC50 [2] was 860 nM. The inhibition at 10 µM [2] was 100%, the concentration at 6 day of CLT dosing (clinical; 500 mg, Subject A) was 1800 nM and the concentration at 6 day (wash-out) (clinical; 500 mg, Subject A, Wash-out day 6) was under 100 nM. It also gave a concentration at 10 day (wash-out) (clinical; 500 mg, Subject A) of under 100 nM, a concentration at 13 day (wash-out) (clinical; 500 mg, Subject A) of 0 nM and a concentration at 20 day (wash-out) (clinical; 500 mg, Subject A) of 0 nM. The concentration at 3 day of CLT dosing (clinical; 500 mg, Subject B, CLT day 3) was 1650 nM, the concentration at 6 day of CLT dosing (clinical; 500 mg, Subject B) was 2500 nM and the concentration at 8 day (wash-out) (clinical; 500 mg, Subject B, Wash-out day 8) was under 100 nM. The concentration at 10 day (wash-out) (clinical; 500 mg, Subject B) was under 100 nM, the concentration at 13 day (wash-out) (clinical; 500 mg, Subject B) was 0 nM and the concentration at 20 day (wash-out) (clinical; 500 mg, Subject B) was 0 nM. For the same compound, the concentration at 3 day of CLT dosing (clinical; Subject A, CLT day 3, oral CLT 500 mg every twelve hours) was 700 nM and the melting point was 74 to 76 °C.

For NC(=O)CC(c1ccc(Cl)cc1)(c1ccc(Cl)cc1)c1ccc(Cl)cc1 [Compound 30, tris(4-chlorophenyl)propionamide], the inhibition at 10 µM [1] was 99%, the IC50 [1] was 900 nM and the IC50 [2] was 272 nM. For the same compound, the inhibition at 10 µM [2] was 97% and the melting point was 158 to 160 °C.

In the case of N#CC(c1ccccc1)(c1ccccc1)c1ccccc1F [Compound 32, (2-fluorophenyl)-diphenylacetonitrile], the inhibition at 10 µM [1] is reported as 54%, the IC50 [2] is reported as 68 nM and the inhibition at 10 µM [2] is reported as 95.7%. The melting point was 144 to 145 °C.

In the case of O=C(O)CC(c1ccccc1)(c1ccccc1)c1ccccc1Cl [Compound 36, 3-(2-chlorophenyl)-3,3-diphenylpropionic acid], the inhibition at 10 µM [1] is reported as 92%, the IC50 [1] is reported as 600 nM and the IC50 [2, 3] is reported as 3110 nM. The inhibition at 10 µM [2] was 78.6% and the melting point was 180 to 182 °C.

Work on N#CC(c1ccccc1)(c1ccccc1)c1ccc([N+](=O)[O-])cc1 [Compound 52] yielded an inhibition at 10 µM [1] of 93%, an IC50 [1] of 1700 nM and an IC50 [2, 3] of 255 nM. It also gave an inhibition at 10 µM [2] of 94%.

Compound COC(=O)CC(c1ccccc1)(c1ccccc1)c1ccccc1 [Compound 53] has an inhibition at 10 µM [1] of 74%, an IC50 [2, 3] of 101 nM and an inhibition at 10 µM [2] of 98%.

Work on Nc1ccc(C(O)(c2ccc(N)cc2)c2ccc(N)cc2)cc1 [Compound 54] yielded an inhibition at 10 µM [1] of 99%, an IC50 [1] of 200 nM and an inhibition at 10 µM [2] of 17.4%.

Compound CCOC(=O)C(C(=O)OCC)C(c1ccccc1)(c1ccccc1)c1ccccc1F [Compound 55] has an inhibition at 10 µM [1] of 5%, an IC50 [2, 3] of 58 nM and an inhibition at 10 µM [2] of 98%.

With CON(C)C(=O)CC(c1ccccc1)(c1ccccc1)c1ccccc1 [Compound 56] the inhibition at 10 µM [1] was 99%, the IC50 [1] was 3200 nM and the IC50 [2, 3] was 275 nM. The inhibition at 10 µM [2] was 91%.

With CCOC(=O)CNC(c1ccccc1)(c1ccccc1)c1ccccc1 [Compound 57] the inhibition at 10 µM [1] was 21%, the IC50 [2, 3] was 1510 nM and the inhibition at 10 µM [2] was 89%.

COc1ccc(C(O)(c2ccccc2)c2ccc(OC)cc2)cc1 [Compound 58] showed an inhibition at 10 µM [1] of 99%, an IC50 [2] of 247 nM and an inhibition at 10 µM [2] of 99.6%.

Work on Cc1ccc(C(O)(c2ccc(C)cc2)c2ccc(C)cc2)cc1 [Compound 59] yielded an inhibition at 10 µM [1] of 98%, an IC50 [1] of 3000 nM and an IC50 [2] of 489 nM. The inhibition at 10 µM [2] was 100%.

For COc1ccc(C(O)(c2ccccc2)c2ccccc2)cc1 [Compound 60], the inhibition at 10 µM [1] was 31%, the IC50 [2] was 304 nM and the inhibition at 10 µM [2] was 98%.

With OC(c1ccccc1)(c1ccccc1)c1cccc2ccccc12 [Compound 61] the inhibition at 10 µM [1] was 99%, the IC50 [1] was 1600 nM and the IC50 [2] was 2370 nM. For the same compound, the inhibition at 10 µM [2] was 85%.

Compound COC(=O)c1ccc(C(O)(c2ccccc2)c2ccccc2)cc1 [Compound 62] has an inhibition at 10 µM [1] of 31%, an IC50 [2] of 98 nM and an inhibition at 10 µM [2] of 98%.

Work on OC(c1ccccc1)(c1ccccc1)c1cccnc1 [Compound 63] yielded an inhibition at 10 µM [1] of 37%, an IC50 [2] of 1020 nM and an inhibition at 10 µM [2] of 69%.

In the case of N#CCCC(c1ccccc1)(c1ccccc1)c1ccccc1 [Compound 64, 4,4,4-triphenylbutronitrile], the inhibition at 10 µM [1] is reported as 63%, the IC50 [1] is reported as 5800 nM and the IC50 [2, 3] is reported as 88 nM. The inhibition at 10 µM [2] was 100%.

For O=CCC(c1ccc(Cl)cc1)(c1ccc(Cl)cc1)c1ccc(Cl)cc1 [Compound 65], the inhibition at 10 µM [1] was 99%, the IC50 [1] was 1600 nM and the IC50 [2] was 435 nM. The inhibition at 10 µM [2] was 98%.

Work on Brc1ccc(C(c2ccccc2)c2ccc(Br)cc2)cc1 [Compound 66] yielded an inhibition at 10 µM [1] of 73%, an IC50 [2] of 384 nM and an inhibition at 10 µM [2] of 67.2%.

CCC(c1ccccc1)(c1ccccc1)c1ccc(O)cc1 [Compound 67] showed an inhibition at 10 µM [1] of 98%, an IC50 [1] of 1400 nM and an IC50 [2, 3] of 430 nM. For the same compound, the inhibition at 10 µM [2] was 96.1%.

In the case of OC(c1ccccc1)(c1ccccc1)c1ccc(C(F)(F)F)cc1 [Compound 68], the inhibition at 10 µM [1] is reported as 98%, the IC50 [1] is reported as 3100 nM and the IC50 [2] is reported as 236 nM. The inhibition at 10 µM [2] was 97.5%.

Work on O=C(CBr)C(c1ccccc1)(c1ccccc1)c1ccccc1 [Compound 69] yielded an inhibition at 10 µM [1] of 99%, an IC50 [2, 3] of 25 nM and an inhibition at 10 µM [2] of 100%.

Work on N#CCc1ccc([Si](c2ccccc2)(c2ccccc2)c2ccccc2)cc1 [Compound 71] yielded an inhibition at 10 µM [1] of 97%, an IC50 [1] of 1100 nM and an inhibition at 10 µM [2] of 0.4%.

Compound OCCCC[Si](c1ccccc1)(c1ccccc1)c1ccccc1 [Compound 73] has an inhibition at 10 µM [1] of 99%, an IC50 [1] of 2500 nM and an IC50 [2] of 371 nM. For the same compound, the inhibition at 10 µM [2] was 98.9%.

Compound O=C(O)CCC(c1ccccc1)(c1ccccc1)c1ccccc1 [Compound 74] has an inhibition at 10 µM [1] of 70%, an IC50 [2, 3] of 1400 nM and an inhibition at 10 µM [2] of 97.5%.

With NC(=O)C(c1ccccc1)(c1ccccc1)c1ccccc1Cl [Compound 75, (2-chlorophenyl)-diphenylacetamide] the inhibition at 10 µM [1] was 90%, the IC50 [2, 3] was 6 nM and the inhibition at 10 µM [2] was 98%. For the same compound, the melting point was 197 to 198.5 °C.

For NC(=O)CCC(c1ccccc1)(c1ccccc1)c1ccccc1 [Compound 78], the inhibition at 10 µM [1] was 72%, the IC50 [2, 3] was 220 nM and the inhibition at 10 µM [2] was 95%.

O=CCC(c1ccccc1)(c1ccccc1)c1ccccc1Cl [Compound 79, 3-(2′-chlorophenyl)-3,3-diphenylpropanal] showed an inhibition at 10 µM [1] of 99%, an IC50 [1] of 2700 nM and an IC50 [2, 3] of 83 nM. For the same compound, the inhibition at 10 µM [2] was 96% and the melting point was 92 to 93 °C.

In the case of O=C(O)C(c1ccccc1)(c1ccccc1)c1ccccc1Cl [Compound 80], the inhibition at 10 µM [1] is reported as 62%, the IC50 [2, 3] is reported as 206 nM and the inhibition at 10 µM [2] is reported as 97%.

COc1ccc(C(O)(c2ccccc2)c2ccccc2Cl)cc1 (centres unmarked) [Compound 81] showed an inhibition at 10 µM [1] of 53%, an IC50 [2, 3] of 187 nM and an inhibition at 10 µM [2] of 100%.

CC(=O)CC(c1ccccc1)(c1ccccc1)c1ccccc1Cl [Compound 82, 4-(2-chlorophenyl)-4,4-diphenyl-2-butanone] showed an inhibition at 10 µM [1] of 98%, an IC50 [1] of 5000 nM and an IC50 [2, 3] of 27 nM. The inhibition at 10 µM [2] was 99.5%.

In the case of COc1ccc(C(c2ccccc2)c2ccccc2Cl)cc1 (centres unmarked) [Compound 83], the inhibition at 10 µM [1] is reported as 80%, the IC50 [1] is reported as 6400 nM and the IC50 [2, 3] is reported as 918 nM. For the same compound, the inhibition at 10 µM [2] was 96.7%.

For Oc1ccc(C(O)(c2ccccc2)c2ccccc2Cl)cc1 (stereo not drawn) [Compound 84, α-(2-chlorophenyl)-α-(4-hydroxyphenyl)benzyl alcohol], the inhibition at 10 µM [1] was 99%, the IC50 [1] was 1000 nM and the IC50 [2] was 1270 nM. It also gave an inhibition at 10 µM [2] of 95.3% and a melting point of 56.5 to 60 °C.

In the case of Oc1ccc(C(c2ccccc2)c2ccccc2Cl)cc1 (centres unmarked) [Compound 85], the inhibition at 10 µM [1] is reported as 91%, the IC50 [1] is reported as 7000 nM and the IC50 [2, 3] is reported as 739 nM. The inhibition at 10 µM [2] was 98%.

Compound Cc1ccc(C(c2cc(Cl)ccc2N)c2ccccc2Cl)cc1 (centres unmarked) [Compound 86] has an inhibition at 10 µM [1] of 99%, an IC50 [1] of 2400 nM and an IC50 [2, 3] of 237 to 455 nM. It also gave an inhibition at 10 µM [2] of 93.9%.

In the case of CCOC(=O)C(c1ccccc1)(c1ccccc1)N1CCCCC1 [Compound 87], the inhibition at 10 µM [1] is reported as 96%, the IC50 [1] is reported as 2200 nM and the IC50 [2, 3] is reported as 68 nM. The inhibition at 10 µM [2] was 99%.

In the case of OC(c1ccccc1)(c1ccccc1)C1CCCCC1 [Compound 88, cyclohexyl-diphenylmethanol], the inhibition at 10 µM [1] is reported as 94%, the IC50 [1] is reported as 9500 nM and the IC50 [2, 3] is reported as 862 nM. The inhibition at 10 µM [2] was 99% and the melting point was 76 to 78 °C.

For N#CC(c1ccccc1)(c1ccccc1)C1CCCCC1 [Compound 89, cyclohexyl-diphenylacetonitrile], the inhibition at 10 µM [1] was 98%, the IC50 [1] was 900 nM and the IC50 [2, 3] was 6130 nM. It also gave an inhibition at 10 µM [2] of 70.2% and a melting point of 117.5 to 119 °C.

For NC(=O)C(c1ccccc1)(c1ccccc1)C1CCCCC1 [Compound 90, Cyclohexyl-diphenylacetamide], the inhibition at 10 µM [1] was 86%, the IC50 [1] was 3000 nM and the IC50 [2, 3] was 72 nM. For the same compound, the inhibition at 10 µM [2] was 98.3%.
